{
  "source": "patent US20100056391A1",
  "about": "“INTEGRATED SCREENING ASSAYS AND METHODS OF USE” (Trustees of Princeton University, priority 2006, published 2010)",
  "test_system": "Dictyostelium cells",
  "test": "Development of Dictyostelium cells in the presence of AFC (time-lapse imaging, FIG. 7)",
  "type": "cell-based",
  "description": "Accordingly, some embodiments of the present invention are directed to assays testing the effects of AFC on Dictyostelium cells.",
  "data": [
    {"molecule": "CC(=O)N[C@@H](CSC/C=C(\\C)CC/C=C(\\C)CCC=C(C)C)C(=O)O", "note": "[AFC, N-acetyl-farnsyl cysteine]", "values": [
      {"measurement": "ability of the cells to form fruiting bodies", "setting": "Dictyostelium cells treated with AFC", "value": "inhibited"},
      {"measurement": "mechanism by which individual cells aggregate into multicellular clusters (head-to-tail streaming while migrating)", "setting": "compared with untreated cells, which line up head-to-tail and form streams, FIG. 7, 6.5, 8.5 and 9.25 hours", "value": "migrate, but do not line up head-to-tail"}
    ]}
  ]
}
